{"source": "paper PMC11596392", "about": "“Enhanced Antibacterial, Anti-Inflammatory, and Antibiofilm Activities of Tryptophan-Substituted Peptides Derived from Cecropin A-Melittin Hybrid Peptide BP100” (Molecules, 2024)", "key": {"[1]": {"system": "MDRPA (CCARM 2095) biofilm formation", "assay_type": "cell-based, multidrug-resistant Pseudomonas aeruginosa", "details": "overnight 37 °C, crystal violet staining", "description": "Bacterial biofilms, comprising communities of bacterial cells encased in a matrix of polysaccharides and nucleic acids, present a significant challenge for conventional antibiotics due to the protective nature of this matrix. Biofilms can enhance bacterial resistance to antibiotics by up to 1000-fold compared to planktonic bacteria. To address this issue, there is an urgent need to discover and develop novel alternative therapeutic agents capable of effectively combating biofilm-forming bacteria. […] Our research specifically focused on evaluating the impact of BP100 and its analogs on biofilm formation and eradication using multidrug-resistant Pseudomonas aeruginosa (MDRPA), a common pathogen responsible for biofilm-mediated nosocomial infections. The adhered biomass was quantified using crystal violet staining, and the minimum biofilm inhibitory concentration (MBIC90) was determined as the lowest concentration required to inhibit 90% of biofilm growth relative to the positive control. […] Human cathelicidin LL-37 is well-documented for its potent antibiofilm properties.\nThe inhibitory activity of the peptides on biofilm formation was evaluated against multidrug-resistant Pseudomonas aeruginosa (MDRPA) (CCARM 2095) using a biofilm inhibition assay to determine the minimal biofilm inhibitory concentration (MBIC). Peptide solutions were serially diluted in sterile water and aliquoted (100 μL) into a 96-well Costar polypropylene plate (Corning Inc., Corning, NY, USA). An equal volume of MDRPA suspension in Mueller–Hinton Broth (MHB), adjusted to 1 × 10^6 CFU/mL, was added to each well, resulting in a final inoculum density of 5 × 10^5 CFU/mL. Following overnight incubation at 37 °C, bacterial growth was quantified by measuring the optical density (OD) at 595 nm. Planktonic cells were then discarded, and the attached biofilms were washed thrice with distilled water. Residual biofilms were stained with 0.1% crystal violet for five minutes, washed to remove non-adherent dye, and subsequently destained using 95% ethanol. The OD at 595 nm was measured again to assess the biofilm mass. Control wells contained untreated bacteria. The MBIC was defined as the lowest peptide concentration that inhibited any residual crystal violet staining or biofilm formation. All assays were conducted in triplicate to ensure reproducibility. This method allows for the quantitative assessment of the peptides’ ability to prevent biofilm formation, a critical virulence factor in many bacterial infections, particularly those caused by multidrug-resistant strains."}, "[2]": {"system": "preformed MDRPA (CCARM 2095) biofilms", "assay_type": "cell-based, multidrug-resistant Pseudomonas aeruginosa", "details": "24 h treatment", "protocol": "While preventing biofilm formation on surfaces is crucial, treating established biofilm infections presents a significant challenge due to the extracellular polymeric substance (EPS) matrix hindering antibiotic penetration and the high cell density within mature biofilms. To address this challenge, we evaluated the ability of BP100 and its analogs to eradicate established MDRPA biofilms over a 24 h period. The minimum biofilm eradication concentration (MBEC90) was determined using crystal violet staining as the lowest concentration that reduced biomass by more than 90%. Among these peptides, BP5, BP6, BP7, BP8, BP9, BP11, and BP13 eradicated preformed MDRPA biofilms by more than 90% at a concentration of 8 μM (Figure 3c,d and Table 3).\nThe minimal biofilm eradication concentration (MBEC) for peptides against the multidrug-resistant Pseudomonas aeruginosa (MDRPA) (CCARM 2095) strain was assessed using the Calgary Biofilm Device (CBD), supplied by Innovotech, Edmonton, AB, Canada. A bacterial suspension with a density of (1 × 10^6) CFU/mL in (150 µL) of Luria–Bertani (LB) media was dispensed into each well of a 96-well microtiter plate, which was equipped with a peg lid (Innovotech, product code: 19111). This plate was incubated at 37 °C for 24 h with agitation at 110 rpm, promoting biofilm formation on the pegs. Subsequently, the peg lid was washed with phosphate-buffered saline (PBS, 0.01 M) and relocated to a fresh plate containing varying peptide concentrations (200 µL per well). The biofilms were then subjected to these peptides under the same incubation conditions. After another PBS rinse, the peg lid was moved to a recovery plate filled with (200 µL) of LB media per well. To detach the biofilms from the pegs, the recovery plate underwent sonication in a water bath for 10 to 15 min. Finally, the recovery plate was incubated at 37 °C for 24 h with agitation at 110 rpm, allowing any surviving bacteria to proliferate and cause turbidity. The MBEC is defined as the lowest concentration of peptides that inhibited turbidity formation in the recovery plate in comparison to sterility controls. This experiment was conducted in triplicate, and the median value from each trial was recorded."}, "bacterial strains": {"system": "bacterial strains", "experiment": "Geometric mean (GM) of MIC values over the bacterial strains", "assay_type": "cell-based", "details": "over the 11 bacterial strains of Table 2", "protocol": "The antibacterial efficacy of the synthesized peptides was evaluated by determining the minimal inhibitory concentrations (MICs) against six standard bacterial strains and five drug-resistant bacterial strains using the Clinical and Laboratory Standards Institute (CLSI) microdilution method. Melittin served as the positive control.\nThe minimal inhibitory concentrations (MICs) of the peptides against bacterial strains were determined using a modified broth-microdilution method in accordance with the National Committee for Clinical Laboratory Standards (NCCLS) guidelines. Overnight cultures were diluted in cation-adjusted Mueller–Hinton Broth (MHB) to achieve an inoculum density of 2 × 10^6 CFU/mL. A two-fold serial dilution of the peptide solution (100 μL) was introduced into microtiter plates, followed by the addition of 100 μL of bacterial suspension. The plates were then incubated at 37 °C for 24 h to determine the MICs. Wells containing only culture media served as negative controls, while those with added bacteria functioned as positive controls. The MIC, expressed in μM, was defined as the lowest peptide concentration that prevented visible bacterial growth. […]"}, "MDRPA (CCARM 2095)": {"system": "MDRPA (CCARM 2095)", "assay_type": "cell-based, multidrug-resistant Pseudomonas aeruginosa", "details": "checkerboard, 37 °C, 24 h", "description": "Multidrug-resistant pathogens pose a significant challenge to both human and animal health. The steady decline in the discovery of new antibiotics has exacerbated the difficulty in developing effective therapies for infection control. Consequently, there is an urgent need for alternative strategies that can combat pathogens without inducing drug resistance. One such strategy involves the combination of different antimicrobial agents. The effects of antimicrobial peptides (AMPs) combined with conventional antibiotics often surpass those of individual drugs. […] The primary advantage of synergistic combinations lies in their ability to lower the concentration of each antimicrobial agent required for effective antibacterial activity. This approach offers several benefits, including reduced production costs, a decreased risk of adverse side effects, diminished toxicity to mammalian cells, and a lower likelihood of drug resistance development. In light of these potential advantages, we investigated the synergistic effects of BP100 and the five selected analogs in combination with ciprofloxacin against multidrug-resistant Pseudomonas aeruginosa (MDRPA) using a checkerboard synergy assay. Ciprofloxacin, an antibiotic belonging to the fluoroquinolone class, is commonly used to treat various bacterial infections, including urinary tract infections and pneumonia. It exerts a bactericidal effect by inhibiting bacterial DNA gyrase, thereby disrupting DNA replication and transcription […]. The fractional inhibitory concentration index (FICI) results for BP100 and its selected analogs, when paired with ciprofloxacin against MDRPA, are detailed in Table 5. […] Such combinations may offer a valuable approach to enhancing the efficacy of existing antibiotics and potentially mitigating the development of antimicrobial resistance.\nThe synergistic effects of peptide-antibiotic combinations against methicillin-resistant Staphylococcus aureus (MRSA; CCARM 3089) and multidrug-resistant Pseudomonas aeruginosa (MDRPA; CCARM 2095) were evaluated using the fractional inhibitory concentration index (FICI) method. Antibiotics and peptides were subjected to two-fold serial dilutions, mixed in equal ratios, and combined with a bacterial suspension adjusted to approximately 10^6 CFU/mL. The resulting mixtures were distributed into microplate wells and incubated at 37 °C with orbital shaking at 200 rpm for 24 h. Bacterial growth was monitored by measuring the optical density at 600 nm (OD600). The FICI was calculated using the broth microdilution checkerboard method, defined as the sum of the ratios of the minimum inhibitory concentrations (MICs) of each agent in combination to their individual MICs, according to the following equation: FICI = (MIC of antibiotic in combination/MIC of antibiotic alone) + (MIC of peptide in combination/MIC of peptide alone). The interpretation of FICI values was as follows: FICI ≤ 0.5 indicates synergy; 0.5 < FICI ≤ 1.0 indicates an additive effect; 1.0 < FICI ≤ 4.0 indicates indifference; and FICI > 4.0 indicates antagonism."}}}
{"compound": "CC[C@H](C)[C@H](NC(=O)[C@H](CCCCN)NC(=O)[C@H](CCC(=O)O)NC(=O)[C@H](CCCCN)NC(=O)[C@H](CO)NC(=O)[C@H](CCCCN)NC(=O)[C@H](CCCNC(=N)N)NC(=O)[C@H](Cc1ccccc1)NC(=O)[C@H](Cc1ccccc1)NC(=O)[C@H](CC(=O)O)NC(=O)CNC(=O)[C@H](CC(C)C)NC(=O)[C@@H](N)CC(C)C)C(=O)NCC(=O)N[C@@H](CCCCN)C(=O)N[C@@H](CCC(=O)O)C(=O)N[C@@H](Cc1ccccc1)C(=O)N[C@@H](CCCCN)C(=O)N[C@@H](CCCNC(=N)N)C(=O)N[C@H](C(=O)N[C@H](C(=O)N[C@@H](CCC(N)=O)C(=O)N[C@@H](CCCNC(=N)N)C(=O)N[C@H](C(=O)N[C@@H](CCCCN)C(=O)N[C@@H](CC(=O)O)C(=O)N[C@@H](Cc1ccccc1)C(=O)N[C@@H](CC(C)C)C(=O)N[C@@H](CCCNC(=N)N)C(=O)N[C@@H](CC(N)=O)C(=O)N[C@@H](CC(C)C)C(=O)N[C@H](C(=O)N1CCC[C@H]1C(=O)N[C@@H](CCCNC(=N)N)C(=O)N[C@H](C(=O)N[C@@H](CCC(=O)O)C(=O)N[C@@H](CO)C(=O)O)[C@@H](C)O)C(C)C)[C@@H](C)CC)C(C)C)[C@@H](C)CC", "note": "[LL-37, reference compound]", "values": [{"measurement": "MBIC50", "setting": "[1]; 50% inhibition", "result": "32 to 64", "unit": "µM"}, {"measurement": "MBIC90", "setting": "[1]; 90% inhibition", "result": 64, "unit": "µM"}, {"measurement": "MBEC50", "setting": "[2]; 50% eradication", "result": 32, "unit": "µM"}, {"measurement": "MBEC90", "setting": "[2]; 90% eradication", "result": "> 64", "unit": "µM"}]}
{"compound": "CC[C@H](C)[C@H](NC(=O)CN)C(=O)NCC(=O)N[C@@H](C)C(=O)N[C@H](C(=O)N[C@@H](CC(C)C)C(=O)N[C@@H](CCCCN)C(=O)N[C@H](C(=O)N[C@@H](CC(C)C)C(=O)N[C@H](C(=O)N[C@H](C(=O)NCC(=O)N[C@@H](CC(C)C)C(=O)N1CCC[C@H]1C(=O)N[C@@H](C)C(=O)N[C@@H](CC(C)C)C(=O)N[C@H](C(=O)N[C@@H](CO)C(=O)N[C@@H](Cc1c[nH]c2ccccc12)C(=O)N[C@H](C(=O)N[C@@H](CCCCN)C(=O)N[C@@H](CCCNC(=N)N)C(=O)N[C@@H](CCCCN)C(=O)N[C@@H](CCCNC(=N)N)C(=O)N[C@@H](CCC(N)=O)C(=O)N[C@@H](CCC(N)=O)C(N)=O)[C@@H](C)CC)[C@@H](C)CC)[C@@H](C)O)[C@@H](C)O)C(C)C)C(C)C", "note": "[ME, melittin]", "values": [{"measurement": "GM (geometric mean of MIC values)", "setting": "bacterial strains", "result": 24.0, "unit": "µM"}]}
{"compound": "O=C(O)c1cn(C2CC2)c2cc(N3CCNCC3)c(F)cc2c1=O", "note": "[ciprofloxacin, reference compound]", "values": [{"measurement": "MICB: MIC of ciprofloxacin alone", "setting": "MDRPA (CCARM 2095)", "result": 2048, "unit": "µg/mL"}]}
